Key:
[1] = biological target: T1, Human κ-Opioid (KOP) (Homo sapiens, UniProt P41145); test: Radioligand binding, human κ-opioid (KOP) membranes, filtration, [3H]-Diprenorphine; details: compound at 10 μM, [3H]-Diprenorphine
T1 construct: purchased Perkin Elmer Biosignal
In short: (§1)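 Percent inhibition of radioligand binding measured on recombinant human membranes: NK1 with [125I]-Substance P, KOP with [3H]-Diprenorphine. Incubation 1 h at room temperature, then harvest onto 0.3% PEI-soaked filters, cold Tris-HCl pH 7.4 washes and scintillation counting; non-specific binding from reference ligand wells.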

[2] = biological target: T2, Human neuropeptide Y (NPY-Y1) (Homo sapiens, UniProt P25929); test: Radioligand binding, human neuropeptide Y NPY-Y1 membranes, FlashPlate, [125I]-PYY; details: compound at 10 μM, [125I]-PYY
T2 construct: purchased Perkin Elmer Biosignal
T2 sequence (P25929 1-384): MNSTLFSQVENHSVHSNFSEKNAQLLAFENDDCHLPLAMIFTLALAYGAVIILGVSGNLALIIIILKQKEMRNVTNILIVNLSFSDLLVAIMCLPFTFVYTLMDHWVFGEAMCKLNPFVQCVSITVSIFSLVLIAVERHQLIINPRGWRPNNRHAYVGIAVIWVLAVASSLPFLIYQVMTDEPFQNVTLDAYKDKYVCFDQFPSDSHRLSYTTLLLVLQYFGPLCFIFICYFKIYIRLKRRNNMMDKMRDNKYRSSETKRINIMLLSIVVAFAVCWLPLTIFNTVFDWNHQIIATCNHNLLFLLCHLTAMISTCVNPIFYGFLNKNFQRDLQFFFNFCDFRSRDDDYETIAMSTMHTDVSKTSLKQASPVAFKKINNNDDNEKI
In short: (§2)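 Cloned human receptor membranes were coated onto FlashPlate wells and incubated with radioligand and compound (added from a 0.5 mM DMSO daughter plate) for 1 hour at room temperature in the dark. Scintillation counting gave percent inhibition, with DMSO defining total and reference ligand defining non-specific binding.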

[3] = biological target: T3, Human neurokinin (NK1) (Homo sapiens, UniProt P25103); test: Radioligand binding, human neurokinin NK1 membranes, filtration, [125I]-Substance P; details: compound at 10 μM, [125I]-Substance P
T3 construct: purchased Perkin Elmer Biosignal
T3 sequence (P25103 whole entry): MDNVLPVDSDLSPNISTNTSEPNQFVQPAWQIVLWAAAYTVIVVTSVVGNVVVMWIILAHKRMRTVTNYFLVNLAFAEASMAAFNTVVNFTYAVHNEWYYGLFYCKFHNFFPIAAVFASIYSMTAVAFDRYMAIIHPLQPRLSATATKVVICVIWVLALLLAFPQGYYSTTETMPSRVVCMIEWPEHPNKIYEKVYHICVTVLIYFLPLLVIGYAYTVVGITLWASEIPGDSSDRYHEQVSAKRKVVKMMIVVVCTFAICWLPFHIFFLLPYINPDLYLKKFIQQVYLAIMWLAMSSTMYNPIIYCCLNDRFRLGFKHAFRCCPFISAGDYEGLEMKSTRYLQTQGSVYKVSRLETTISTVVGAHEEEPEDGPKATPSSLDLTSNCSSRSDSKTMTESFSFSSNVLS
In short: as §1

[4] = biological target: T4, Mouse urotensin (mUR2) (Mus musculus, UniProt Q8VIH9); test: Radioligand binding, mouse urotensin mUR2 membranes, FlashPlate, [125I]-Urotensin II; details: compound at 10 μM, [125I]-Urotensin II
T4 construct: purchased Perkin Elmer Biosignal
T4 sequence (Q8VIH9 1-385): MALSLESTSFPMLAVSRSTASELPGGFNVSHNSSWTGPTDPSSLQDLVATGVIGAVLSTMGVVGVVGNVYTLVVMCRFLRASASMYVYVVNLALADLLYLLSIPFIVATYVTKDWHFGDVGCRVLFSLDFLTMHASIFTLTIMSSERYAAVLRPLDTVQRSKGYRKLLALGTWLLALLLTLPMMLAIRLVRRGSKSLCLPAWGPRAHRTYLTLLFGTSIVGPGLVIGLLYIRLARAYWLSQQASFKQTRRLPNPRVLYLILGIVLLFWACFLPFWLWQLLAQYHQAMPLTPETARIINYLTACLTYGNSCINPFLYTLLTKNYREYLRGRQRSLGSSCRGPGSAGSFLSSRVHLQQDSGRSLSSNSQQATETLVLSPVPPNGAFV
In short: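 Cloned mouse urotensin (mUR2) receptor membranes from Perkin Elmer Biosignal were immobilized in FlashPlate microplates using a proprietary coating. Each well got 19.5 μl buffer, then 0.5 μl of DMSO, reference ligand, or compound. Adding 5 μl of [125I]-Urotensin II, diluted to 5× final concentration in binding buffer, started binding. Plates were sealed with TopSeal-A and incubated 1 hour at room temperature in the dark. Wells were counted for 30 seconds each on a TopCount after a 60-second delay, and percentage inhibition was calculated.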

[5] = biological target: T5, Human melanocortin (MC5) (Homo sapiens, UniProt P33032); test: Radioligand binding, human melanocortin MC5 membranes, FlashPlate, [125I]-NDP-αMSH; details: compound at 10 μM, [125I]-NDP-αMSH
T5 construct: purchased Perkin Elmer Biosignal
T5 sequence (P33032 whole entry): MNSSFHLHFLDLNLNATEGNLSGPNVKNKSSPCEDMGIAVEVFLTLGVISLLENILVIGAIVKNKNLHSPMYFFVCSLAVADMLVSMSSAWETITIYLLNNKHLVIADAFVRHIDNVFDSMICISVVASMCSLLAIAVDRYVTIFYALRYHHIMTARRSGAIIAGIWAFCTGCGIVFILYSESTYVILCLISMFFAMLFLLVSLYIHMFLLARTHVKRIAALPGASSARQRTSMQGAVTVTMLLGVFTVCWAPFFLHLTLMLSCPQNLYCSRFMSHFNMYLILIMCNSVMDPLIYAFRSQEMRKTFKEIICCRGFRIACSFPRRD
In short: as §2

[6] = biological target: T6, Human Melanocortin (MC3) (Homo sapiens, UniProt P41968); test: Radioligand binding, human melanocortin MC3 membranes, FlashPlate, [125I]-NDP-αMSH; details: compound at 10 μM, [125I]-NDP-αMSH
T6 construct: purchased Perkin Elmer Biosignal
T6 sequence (P41968 whole entry): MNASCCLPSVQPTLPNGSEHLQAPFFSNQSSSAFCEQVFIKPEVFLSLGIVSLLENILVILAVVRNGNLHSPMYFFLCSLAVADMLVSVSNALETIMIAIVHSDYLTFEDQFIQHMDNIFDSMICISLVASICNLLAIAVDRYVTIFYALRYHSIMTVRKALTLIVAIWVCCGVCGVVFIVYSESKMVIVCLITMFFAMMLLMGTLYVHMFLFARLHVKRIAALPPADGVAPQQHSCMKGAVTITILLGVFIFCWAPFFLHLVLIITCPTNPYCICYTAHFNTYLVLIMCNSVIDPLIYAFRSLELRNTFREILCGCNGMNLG
In short: as §2

[7] = biological target: T7, Human Melanocortin (MC4) (Homo sapiens, UniProt P32245); test: Radioligand binding, human melanocortin MC4 membranes, FlashPlate, [125I]-NDP-αMSH; details: compound at 10 μM, [125I]-NDP-αMSH
T7 construct: purchased Perkin Elmer Biosignal
T7 sequence (P32245 whole entry): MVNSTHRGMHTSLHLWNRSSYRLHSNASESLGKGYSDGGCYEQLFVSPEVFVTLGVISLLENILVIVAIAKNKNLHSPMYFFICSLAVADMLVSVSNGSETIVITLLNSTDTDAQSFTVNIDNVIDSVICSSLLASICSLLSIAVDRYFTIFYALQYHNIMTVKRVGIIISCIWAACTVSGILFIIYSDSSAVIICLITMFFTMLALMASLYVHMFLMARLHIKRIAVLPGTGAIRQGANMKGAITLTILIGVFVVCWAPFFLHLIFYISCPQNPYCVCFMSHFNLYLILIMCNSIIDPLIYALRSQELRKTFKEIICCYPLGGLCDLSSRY
In short: as §2

[8] = biological target: T8, Human δ-opioid (DOP) (Homo sapiens, UniProt P41143); test: Radioligand binding, human δ-opioid (DOP) membranes, FlashPlate, [3H]-Bremazocine; details: compound at 10 μM, [3H]-Bremazocine
T8 construct: purchased Perkin Elmer Biosignal
T8 sequence (P41143 whole entry): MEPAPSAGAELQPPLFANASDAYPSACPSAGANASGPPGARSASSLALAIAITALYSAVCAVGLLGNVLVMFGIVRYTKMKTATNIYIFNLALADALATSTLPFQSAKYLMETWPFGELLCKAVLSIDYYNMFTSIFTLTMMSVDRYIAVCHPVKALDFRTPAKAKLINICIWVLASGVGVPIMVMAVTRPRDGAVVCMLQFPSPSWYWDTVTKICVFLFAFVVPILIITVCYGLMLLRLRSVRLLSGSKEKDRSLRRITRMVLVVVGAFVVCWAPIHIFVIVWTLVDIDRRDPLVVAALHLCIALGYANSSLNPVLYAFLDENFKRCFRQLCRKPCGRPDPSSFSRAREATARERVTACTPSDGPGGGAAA
In short: as §2

[9] = biological target: T9, Human μ-opioid (MOP) (Homo sapiens, UniProt P35372); test: Radioligand binding, human μ-opioid (MOP) membranes, FlashPlate, [3H]-Naloxone; details: compound at 10 μM, [3H]-Naloxone
T9 construct: purchased Perkin Elmer Biosignal
T9 sequence (P35372 whole entry): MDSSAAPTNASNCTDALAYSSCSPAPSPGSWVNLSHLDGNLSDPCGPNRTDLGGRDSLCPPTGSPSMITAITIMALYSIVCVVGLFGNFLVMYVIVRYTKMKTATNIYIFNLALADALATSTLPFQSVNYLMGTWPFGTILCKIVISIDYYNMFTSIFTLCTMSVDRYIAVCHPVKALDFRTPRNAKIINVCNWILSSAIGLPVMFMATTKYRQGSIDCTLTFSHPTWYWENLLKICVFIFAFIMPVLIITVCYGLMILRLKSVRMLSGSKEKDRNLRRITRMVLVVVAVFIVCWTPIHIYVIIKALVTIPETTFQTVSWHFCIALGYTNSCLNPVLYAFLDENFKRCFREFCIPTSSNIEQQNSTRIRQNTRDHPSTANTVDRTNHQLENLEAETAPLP
In short: as §2

[10] = biological target: T10, Human melanin-concentrating hormone (MCH1) (Homo sapiens, UniProt Q99705); test: Radioligand binding, human melanin-concentrating hormone MCH1 membranes, FlashPlate, [125I]-S36057; details: compound at 10 μM
T10 construct: purchased Perkin Elmer Biosignal
T10 sequence (Q99705 whole entry): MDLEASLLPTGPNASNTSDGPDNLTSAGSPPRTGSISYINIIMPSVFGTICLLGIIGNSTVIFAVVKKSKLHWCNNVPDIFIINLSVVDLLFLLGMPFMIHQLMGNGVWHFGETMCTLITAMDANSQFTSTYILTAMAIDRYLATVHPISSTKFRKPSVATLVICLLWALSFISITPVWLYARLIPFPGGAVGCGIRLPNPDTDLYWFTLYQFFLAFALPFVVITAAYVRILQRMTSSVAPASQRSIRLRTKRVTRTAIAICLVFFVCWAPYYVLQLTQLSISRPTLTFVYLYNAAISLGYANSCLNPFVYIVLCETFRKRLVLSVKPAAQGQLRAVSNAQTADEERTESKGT
In short: as §2

[11] = biological target: T11, Human opioid (ORL1) (Homo sapiens, UniProt P41146); test: Radioligand binding, human opioid ORL1 membranes, FlashPlate, [125I]-Nociceptin; details: compound at 10 μM, [125I]-Nociceptin
T11 construct: purchased Perkin Elmer Biosignal
T11 sequence (P41146 whole entry): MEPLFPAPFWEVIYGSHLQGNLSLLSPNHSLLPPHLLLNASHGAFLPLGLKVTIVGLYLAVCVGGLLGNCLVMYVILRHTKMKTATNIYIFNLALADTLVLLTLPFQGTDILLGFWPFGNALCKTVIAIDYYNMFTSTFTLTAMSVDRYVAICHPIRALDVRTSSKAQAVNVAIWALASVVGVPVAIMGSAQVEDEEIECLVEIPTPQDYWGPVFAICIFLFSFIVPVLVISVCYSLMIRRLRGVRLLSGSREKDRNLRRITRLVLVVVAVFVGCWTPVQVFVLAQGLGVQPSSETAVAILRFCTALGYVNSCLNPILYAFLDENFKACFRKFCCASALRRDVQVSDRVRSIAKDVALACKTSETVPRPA
In short: as §2

T1 sequence (P41145 whole entry): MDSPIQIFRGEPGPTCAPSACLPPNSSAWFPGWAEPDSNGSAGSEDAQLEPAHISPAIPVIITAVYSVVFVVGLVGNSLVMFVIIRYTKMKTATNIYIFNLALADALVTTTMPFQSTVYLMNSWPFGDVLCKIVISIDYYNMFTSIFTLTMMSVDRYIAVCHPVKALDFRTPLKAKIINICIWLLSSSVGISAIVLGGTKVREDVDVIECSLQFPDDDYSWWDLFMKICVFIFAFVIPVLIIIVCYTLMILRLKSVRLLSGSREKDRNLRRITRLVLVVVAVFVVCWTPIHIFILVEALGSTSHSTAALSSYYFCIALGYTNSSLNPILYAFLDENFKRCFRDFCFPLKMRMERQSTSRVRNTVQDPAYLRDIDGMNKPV

For `NCCCC(=O)NC1C(OCc2ccc3ccccc3c2)OC(COCc2ccc(Cl)cc2)C(O)C1OCc1ccccc1` (single isomer, unassigned) [compound 469], the “A2: inhibition of radioligand binding” value ([1]; human KOP membranes) was “− (“−” indicates less than 50% inhibition at 10 μM)”, the “A9: inhibition of radioligand binding” value ([2]; human NPY-Y1 membranes) was “− (“−” indicates less than 50% inhibition at 10 μM)” and the “A8: inhibition of radioligand binding” value ([3]; human NK1 membranes) was “+ (“+” indicates greater than 50% inhibition at 10 μM)”. For the same molecule, the “A11: inhibition of radioligand binding” value ([4]; mouse mUR2 membranes) was “− (“−” indicates less than 50% inhibition at 10 μM)”, the “A5: inhibition of radioligand binding” value ([5]; human MC5 membranes) was “+ (“+” indicates greater than 50% inhibition at 10 μM)” and the “A3: inhibition of radioligand binding” value ([6]; human MC3 membranes, 10 µM) was “− (“−” indicates less than 50% inhibition at 10 μM)”. For the same molecule, the “A4: inhibition of radioligand binding” value ([7]; human MC4 membranes, 10 µM) was “+ (“+” indicates greater than 50% inhibition at 10 μM)”, the “A1: inhibition of radioligand binding” value ([8]; human DOP membranes) was “− (“−” indicates less than 50% inhibition at 10 μM)” and the “A7: inhibition of radioligand binding” value ([9]; human MOP membranes) was “− (“−” indicates less than 50% inhibition at 10 μM)”. For the same molecule, the “A6: inhibition of radioligand binding” value ([10]; [125I]-S36057, human MCH1 membranes) was “− (“−” indicates less than 50% inhibition at 10 μM)” and the “A10: inhibition of radioligand binding” value ([11]; human ORL1 membranes, 10 µM) was “− (“−” indicates less than 50% inhibition at 10 μM)”.

For `COCC1OC(OCCc2ccccc2)C(NC(=O)CCN)C(OCc2ccc(Cl)cc2)C1O` (stereo not shown) [compound 221], the “A2: inhibition of radioligand binding” value ([1]; filtration) was “− (“−” indicates less than 50% inhibition at 10 μM)”, the “A9: inhibition of radioligand binding” value ([2]; FlashPlate) was “− (“−” indicates less than 50% inhibition at 10 μM)” and the “A8: inhibition of radioligand binding” value ([3]; filtration) was “+ (“+” indicates greater than 50% inhibition at 10 μM)”. For the same molecule, the “A11: inhibition of radioligand binding” value ([4]; FlashPlate) was “− (“−” indicates less than 50% inhibition at 10 μM)”, the “A5: inhibition of radioligand binding” value ([5]; FlashPlate) was “+ (“+” indicates greater than 50% inhibition at 10 μM)” and the “A3: inhibition of radioligand binding” value ([6]; FlashPlate) was “− (“−” indicates less than 50% inhibition at 10 μM)”. The “A4: inhibition of radioligand binding” value ([7]; FlashPlate) was “− (“−” indicates less than 50% inhibition at 10 μM)”, the “A1: inhibition of radioligand binding” value ([8]; FlashPlate) was “− (“−” indicates less than 50% inhibition at 10 μM)” and the “A7: inhibition of radioligand binding” value ([9]; FlashPlate) was “− (“−” indicates less than 50% inhibition at 10 μM)”. For the same molecule, the “A6: inhibition of radioligand binding” value ([10]; [125I]-S36057, FlashPlate) was “− (“−” indicates less than 50% inhibition at 10 μM)” and the “A10: inhibition of radioligand binding” value ([11]; FlashPlate) was “− (“−” indicates less than 50% inhibition at 10 μM)”.

`NCCCC(=O)NC1C(OCc2ccccc2)OC(COCc2ccc3ccccc3c2)C(O)C1OCc1ccc(Cl)cc1` (stereo not shown) [compound 372] was tested, and the “A2: inhibition of radioligand binding, human κ-opioid (KOP)” value [1] was “− (“−” indicates less than 50% inhibition at 10 μM)”, the “A9: inhibition of radioligand binding, human neuropeptide Y (NPY-Y1)” value [2] was “− (“−” indicates less than 50% inhibition at 10 μM)” and the “A8: inhibition of radioligand binding, human neurokinin (NK1)” value [3] was “+ (“+” indicates greater than 50% inhibition at 10 μM)”. For the same molecule, the “A11: inhibition of radioligand binding, mouse urotensin (mUR2)” value [4] was “− (“−” indicates less than 50% inhibition at 10 μM)”, the “A5: inhibition of radioligand binding, human melanocortin (MC5)” value [5] was “+ (“+” indicates greater than 50% inhibition at 10 μM)” and the “A3: inhibition of radioligand binding, human melanocortin (MC3)” value [6] was “− (“−” indicates less than 50% inhibition at 10 μM)”. The “A4: inhibition of radioligand binding, human melanocortin (MC4)” value [7] was “+ (“+” indicates greater than 50% inhibition at 10 μM)”, the “A1: inhibition of radioligand binding, human δ-opioid (DOP)” value [8] was “− (“−” indicates less than 50% inhibition at 10 μM)” and the “A7: inhibition of radioligand binding, human μ-opioid (MOP)” value [9] was “− (“−” indicates less than 50% inhibition at 10 μM)”. For the same molecule, the “A6: inhibition of radioligand binding, human melanin-concentrating hormone (MCH1)” value ([10]; [125I]-S36057) was “− (“−” indicates less than 50% inhibition at 10 μM)” and the “A10: inhibition of radioligand binding, human opioid (ORL1)” value [11] was “− (“−” indicates less than 50% inhibition at 10 μM)”.

With `COC[C@H]1OC(OCc2cccc(O)c2)[C@H](NC(=O)CCCN)[C@@H](OCc2ccc(-c3ccccc3)cc2)[C@@H]1O` (stereo partly shown) [compound 143] the “A2 radioligand binding, percentage inhibition” value [1] was “− (“−” indicates less than 50% inhibition at 10 μM)”, the “A9 radioligand binding, percentage inhibition” value [2] was “− (“−” indicates less than 50% inhibition at 10 μM)” and the “A8 radioligand binding, percentage inhibition” value [3] was “+ (“+” indicates greater than 50% inhibition at 10 μM)”. The “A11 radioligand binding, percentage inhibition” value [4] was “− (“−” indicates less than 50% inhibition at 10 μM)”, the “A5 radioligand binding, percentage inhibition” value [5] was “− (“−” indicates less than 50% inhibition at 10 μM)” and the “A3 radioligand binding, percentage inhibition” value [6] was “− (“−” indicates less than 50% inhibition at 10 μM)”. For the same molecule, the “A4 radioligand binding, percentage inhibition” value [7] was “− (“−” indicates less than 50% inhibition at 10 μM)”, the “A1 radioligand binding, percentage inhibition” value [8] was “− (“−” indicates less than 50% inhibition at 10 μM)” and the “A7 radioligand binding, percentage inhibition” value [9] was “+ (“+” indicates greater than 50% inhibition at 10 μM)”. For the same molecule, the “A6 radioligand binding, percentage inhibition” value ([10]; [125I]-S36057) was “− (“−” indicates less than 50% inhibition at 10 μM)” and the “A10 radioligand binding, percentage inhibition” value [11] was “− (“−” indicates less than 50% inhibition at 10 μM)”.

For `COCC1OC(OCc2ccc3ccccc3c2)C(NC(=O)CCN)C(OCc2ccc3ccccc3c2)C1O` (stereo not shown) [compound 545], the “A2: inhibition of radioligand binding, human κ-opioid (KOP)” value [1] was “− (“−” indicates less than 50% inhibition at 10 μM)”, the “A9: inhibition of radioligand binding, human neuropeptide Y (NPY-Y1)” value [2] was “− (“−” indicates less than 50% inhibition at 10 μM)” and the “A8: inhibition of radioligand binding, human neurokinin (NK1)” value ([3]; 10 µM) was “+ (“+” indicates greater than 50% inhibition at 10 μM)”. The “A11: inhibition of radioligand binding, mouse urotensin (mUR2)” value [4] was “− (“−” indicates less than 50% inhibition at 10 μM)”, the “A5: inhibition of radioligand binding, human melanocortin (MC5)” value ([5]; 10 µM) was “− (“−” indicates less than 50% inhibition at 10 μM)” and the “A3: inhibition of radioligand binding, human melanocortin (MC3)” value [6] was “− (“−” indicates less than 50% inhibition at 10 μM)”. The “A4: inhibition of radioligand binding, human melanocortin (MC4)” value [7] was “− (“−” indicates less than 50% inhibition at 10 μM)”, the “A1: inhibition of radioligand binding, human δ-opioid (DOP)” value [8] was “− (“−” indicates less than 50% inhibition at 10 μM)” and the “A7: inhibition of radioligand binding, human μ-opioid (MOP)” value [9] was “− (“−” indicates less than 50% inhibition at 10 μM)”. For the same molecule, the “A6: inhibition of radioligand binding, human melanin-concentrating hormone (MCH1)” value ([10]; [125I]-S36057) was “− (“−” indicates less than 50% inhibition at 10 μM)” and the “A10: inhibition of radioligand binding, human opioid (ORL1)” value [11] was “− (“−” indicates less than 50% inhibition at 10 μM)”.

Source: patent publication US20080009418A1, “Selective Inhibitors” (Alchemia LTD., priority 2004, published 2008)
